Reference: ChEMBL document CHEMBL5131385, “Novel piperazine based benzamide derivatives as potential anti-glioblastoma agents inhibiting cell proliferation and cell cycle progression” (Eur J Med Chem, 2022)
Calls of active or inactive are those of the source. No cut-off for these calls is given here.

Columns and labels:
U-251 [1] = test: Antiproliferative activity against human U-251 cells assessed as inhibition of cell proliferation measured after 72 hrs by CCK8 assay; assay type: functional, cell-based; settings: U-251, 72 h
C6 = test: Antiproliferative activity against rat C6 cells assessed as inhibition of cell proliferation measured after 72 hrs by CCK8 assay; assay type: functional, cell-based; settings: C6, 72 h
[2] = Antiproliferative activity against human U-87 MG cells assessed as inhibition of cell proliferation measured after 72 hrs by CCK8 assay; assay type: functional, cell-based, U-87MG ATCC
[3] = Induction of apoptosis in human U-87 MG cells assessed as viable cells at 1.20 uM incubated for 72 hrs by Annexin V-FITC/PI staining based flow cytometry method (reference value: 96.84 %); assay type: functional, U-87MG ATCC; settings: read-out: Activity
U-251 [4] = test: Induction of apoptosis in human U-251 cells assessed as viable cells at 6 uM incubated for 72 hrs by Annexin V-FITC/PI staining based flow cytometry method (reference value: 96.22 %); assay type: functional; settings: read-out: Activity
[5] = Induction of apoptosis in human U-87 MG cells assessed as early apoptotic cells at 1.20 uM incubated for 72 hrs by Annexin V-FITC/PI staining based flow cytometry method (reference value: 2.53 %); assay type: functional, U-87MG ATCC; settings: dose 1.2 µM
U-251 [6] = test: Induction of apoptosis in human U-251 cells assessed as early apoptotic cells at 6 uM incubated for 72 hrs by Annexin V-FITC/PI staining based flow cytometry method (Rvb =1.96 %); assay type: functional
U-251 [7] = test: Induction of apoptosis in human U-251 cells assessed as necrotic cells at 6 uM incubated for 72 hrs by Annexin V-FITC/PI staining based flow cytometry method (Rvb =0.51 %); assay type: functional
U-251 [8] = test: Induction of apoptosis in human U-251 cells assessed as late apoptotic cells at 6 uM incubated for 72 hrs by Annexin V-FITC/PI staining based flow cytometry method (Rvb =1.31 %); assay type: functional
[9] = Induction of apoptosis in human U-87 MG cells assessed as late apoptotic cells at 1.20 uM incubated for 72 hrs by Annexin V-FITC/PI staining based flow cytometry method (reference value: 0.42 %); assay type: functional, U-87MG ATCC; settings: dose 1.2 µM
U-87MG ATCC [10] = test: Antitumor activity against human U-87 MG cells xenografted in BALB/c mouse assessed as decrease in tumor weight at 10 mg/kg,ip bid for 1 month; assay type: functional, organism-based; settings: time 1.0 months
U-87MG ATCC [11] = test: Antitumor activity against human U-87 MG cells xenografted in BALB/c mouse assessed as decrease in tumor volume at 10 mg/kg,ip bid for 1 month; assay type: functional, organism-based; settings: time 1.0 months
[12] = Induction of apoptosis in human U-87 MG cells assessed as necrotic cells at 1.20 uM incubated for 72 hrs by Annexin V-FITC/PI staining based flow cytometry method (reference value: 0.21 %); assay type: functional, U-87MG ATCC; settings: dose 1.2 µM

Row | SMILES | IC50 (U-251 [1]) [nM] | IC50 (C6) [nM] | IC50 [2] [nM] | other results
1 | COCCN1CCN(c2ccc(N)cc2C(=O)Nc2ccc(CNC(=O)OCc3cccnc3)cc2)CC1 | 4000 | 260 | 560 | –
2 | O=C(NCc1ccc(NC(=O)c2ccccc2N2CCN(C3CC3)CC2)cc1)OCc1cccnc1 | 2700 | 1120 | 1040 | –
3 | COCCN1CCN(c2c(C)cccc2C(=O)Nc2ccc(CNC(=O)OCc3cccnc3)cc2)CC1 | 9290 | 440 | 1010 | –
4 | COCCN1CCN(c2ccc(C(F)(F)F)cc2C(=O)Nc2ccc(CNC(=O)OCc3cccnc3)cc2)CC1 | > 30000 | 13900 | 8580 | –
5 | CS(=O)(=O)N1CCN(c2ccccc2C(=O)Nc2ccc(CNC(=O)OCc3cccnc3)cc2)CC1 | 5420 | 850 | 1020 | –
6 | COCCN1CCN(c2cc(F)ccc2C(=O)Nc2ccc(CNC(=O)OCc3cccnc3)cc2)CC1 | 2300 | 220 | 530 | –
7 | COCCN1CCN(c2ccc(-c3ccccc3)cc2C(=O)Nc2ccc(CNC(=O)OCc3cccnc3)cc2)CC1 | > 30000 | > 30000 | > 30000 | –
8 | O=C(NCc1ccc(NC(=O)c2ccccc2N2CCOCC2)cc1)OCc1cccnc1 | 6110 | 4820 | 890 | –
9 | O=C(NCc1ccc(NC(=O)c2ccccc2N2CCN(CCF)CC2)cc1)OCc1cccnc1 | 5890 | 460 | 410 | –
10 | COCCN1CCN(c2cc(C)ccc2C(=O)Nc2ccc(CNC(=O)OCc3cccnc3)cc2)CC1 | 2970 | 890 | 530 | –
11 | COCCN1CCN(c2ccc(C)cc2C(=O)Nc2ccc(CNC(=O)OCc3cccnc3)cc2)CC1 | 12700 | 1290 | 1900 | –
12 | O=C(NCc1ccc(NC(=O)c2ccccc2N2CCN(CCO)CC2)cc1)OCc1cccnc1 | 3230 | 290 | 640 | –
13 | CC(C)N1CCN(c2ccccc2C(=O)Nc2ccc(CNC(=O)OCc3cccnc3)cc2)CC1 | 6090 | 410 | 250 | –
14 | CCN1CCN(c2ccccc2C(=O)Nc2ccc(CNC(=O)OCc3cccnc3)cc2)CC1 | 4550 | 360 | 430 | –
15 | COCCN1CCN(c2ccc(NC(=O)OC(C)(C)C)cc2C(=O)Nc2ccc(CNC(=O)OCc3cccnc3)cc2)CC1 | > 30000 | > 30000 | > 30000 | –
16 | O=C(NCc1ccc(NC(=O)c2ccccc2N2CCN(C3CCC3)CC2)cc1)OCc1cccnc1 | 4050 | 1030 | 620 | –
17 | O=C(NCc1ccc(NC(=O)c2ccccc2N2CCN(CC3CC3)CC2)cc1)OCc1cccnc1 | 10600 | 800 | 1080 | –
18 | COCCN1CCN(c2ccc(Br)cc2C(=O)Nc2ccc(CNC(=O)OCc3cccnc3)cc2)CC1 | 24700 | 2650 | 2660 | –
19 | Cn1nnc2c(C(N)=O)ncn2c1=O [TEMOZOLOMIDE] | > 30000 | > 30000 | > 30000 | viability at 1.2 µM [3]: 96.2%; viability at 6 µM (U-251 [4]): 96.2%; Activity [5]: 2.5%; Activity (U-251 [6]): 1.6%; Activity (U-251 [7]): 0.49%; Activity (U-251 [8]): 1.73%; Activity [9]: 0.98%; Activity (U-87MG ATCC [10]): Active; Activity (U-87MG ATCC [11]): Active; Activity [12]: 0.27%
20 | COCCN1CCN(c2ccc(Cl)cc2C(=O)Nc2ccc(CNC(=O)OCc3cccnc3)cc2)CC1 | 10500 | 1760 | 1010 | –
21 | O=C(NCc1ccc(NC(=O)c2ccccc2N2CCN(C3COC3)CC2)cc1)OCc1cccnc1 | 2350 | 570 | 490 | –
22 | COCCN1CCN(c2cccc(F)c2C(=O)Nc2ccc(CNC(=O)OCc3cccnc3)cc2)CC1 | 25000 | 790 | 4000 | –
23 | COCCN1CCN(c2ccccc2C(=O)Nc2ccc(CNC(=O)OCc3cccnc3)cc2)CC1 | 3360 | 240 | 400 | –
24 | Nc1ccccc1NC(=O)c1ccc(CNC(=O)OCc2cccnc2)cc1 [ENTINOSTAT] | > 30000 | 330 | 4340 | –
25 | COCCN1CCN(c2ccc(OC)cc2C(=O)Nc2ccc(CNC(=O)OCc3cccnc3)cc2)CC1 | 20500 | 1050 | 3470 | –
26 | CCCN1CCN(c2ccccc2C(=O)Nc2ccc(CNC(=O)OCc3cccnc3)cc2)CC1 | 6790 | 360 | 420 | –
27 | CN1CCN(c2ccccc2C(=O)Nc2ccc(CNC(=O)OCc3cccnc3)cc2)CC1 | 6250 | 520 | 1250 | –
